# Assay results published in patent US12679801B2, “Amino lipid and preparation method and application thereof” (Shenzhen MagicRNA Biotechnology Co., Ltd., priority 2022, dated 2026).
# Test system: BMDC primary cells
# Assay: Luc mRNA LNP transfection on BMDC primary cells (Embodiment 13, Table 3)
# Assay type: cell-based, C57BL/6 mice
# Conditions: 16 h, ONE-Glo Luciferase
# Method: Preparation method: the same as that described in Embodiment 7.
# Animal preparation: 6-week-old female C57BL/6 mice with the body weight about 20 g were selected. The feeding environment was an SPF stage feeding room. Animal tests were strictly performed according to the guide of the national health institute and the animal ethics requirements.
# Cell acquisition: C57BL/6 mice were killed through cervical dislocation, and were soaked for 5 min in 75% ethyl alcohol. Dissection was performed to obtain thigh and calf tibiae of the mice. Attached muscles were removed to expose sclerotin. Then, bone marrow in tibiae was blown out by using a 1 mL injector sucked with PBS. After the bone marrow was blown away, impurities were filtered away by a 50 μm filter screen. A red blood cell lysis buffer (3-4 mL) was added into an obtained filtrate. Then, after placement for 5 min, 800 g centrifugation was performed for 5 min to remove the supernatant. The obtained cells were placed into a 1640 culture medium (containing 10% fetal calf serum, 20 ng/mL GMCSF and 10 ng/ml IL4) to be resuspended, and were inoculated into a 6-well plate at an inoculation density of 100000 cells/ml culture medium. The materials were placed into a 37° C. cell incubator containing 5% CO2. Half liquid change was performed once every 2 days. Suspended cells and loose wall attached cells were collected on the seventh day, and were […], and the volume of a culture medium was 100 μL.
# Cell transfection: lipid nanoparticles coated with luciferase mRNA were added into a 96-well all-white ELISA plate laid with primary cells. The adding volume of the mRNA lipid nanoparticles in each well was controlled to be 10 μL. Then, the materials were put into a 37° C. incubator containing 5% CO2 for 16 h.
# Transfection efficiency detection: 20 μL of a substrate ONE-Glo™ Luciferase was added into each well of a 96-well all-white ELISA plate. After 1 min, detection was performed by a multifunctional or multimode microplate reader.
row,SMILES,Luciferase luminescence intensity
1,CCCCCCCCCC(CCCCCCC)C(=O)OCC(CCCCCCC)OC(=O)C(C)CCN(C)C (stereo not drawn) [E4C79A10],1.3E+ 04
2,CCCCCCCCCCCC(COC(=O)C(CCCCCCC)CCCCCCCCC)OC(=O)CCCN(C)C (stereo not drawn) [E8C79A9],3.6E+ 04
3,CCCCCCCCCC(CCCCCCC)C(=O)OCC(CCCCCCC)OC(=O)CCCCCN(C)C (stereo not drawn) [E4C79A12],2.5E+ 04
4,CCCCCCCCCCCCCCC(C)C(=O)OCC(CCCCCCCCCC)OC(=O)CCCCN(C)C (stereo not drawn) [E7C74A11],3.2E+ 04
5,CCCCCCCCCCCCC(COC(=O)C(CC)CCCCCCCCC)OC(=O)C1CCN(C)CC1 (stereo not drawn) [E9C60A23],1.8E+ 04
6,CCCCCCCCCC(CCCCCCC)C(=O)OCC(CCCCCC)OC(=O)CCCCCN(C)C (stereo not drawn) [E3C79A12],6.7E+ 04
7,CCCCCCCCCCCCCCC(C)C(=O)OCC(CCCCCCCCC)OC(=O)CCCCN(C)C (stereo not drawn) [E6C74A11],4.5E+ 04
8,CCCCCCCCCCCCC(COC(=O)C(C)(C)CCCCCCCC)OC(=O)CCCCN(C)C (stereo not drawn) [E9C58A11],3.5E+ 04
9,CCCCCCCCCCCCCCCCC(=O)OCC(OC(=O)C(C)CCN(C)C)C(CCCC)CCCCC (stereo not drawn) [E21C12A10],8.9E+ 04
10,CCCCCCCCCC(COC(=O)C(CCCCCCC)CCCCCCCCC)OC(=O)CCCCCN(C)C (stereo not drawn) [E6C79A12],2.5E+ 04
11,C=CCCCCC(COC(=O)C(CCCCCCC)CCCCCCCCC)OC(=O)C(C)CCN(C)C (stereo not drawn) [E15C79A10],8.9E+ 04
12,CCCCCCCCCCCCC(COC(=O)CCCCCCCCCCCC(C)C)OC(=O)C(C)CCN(C)C (stereo not drawn) [E9C67A10],7.8E+ 04
13,CCCCCCCCCCCCCCC(COC(=O)C(CCCCC)CCCCC)OC(=O)CCCCN(C)C (stereo not drawn) [E11C57A11],6.4E+ 04
14,CCCCCCCCCCCCCCC(C)C(=O)OCC(CCCCCCCCCC)OC(=O)C(C)CCN(C)C (stereo not drawn) [E7C74A10],3.7E+ 04
15,CCCCCCCCCCCCCCC(=O)OCC(CCCCCC(CC)CC)OC(=O)C(C)CCN(C)C (stereo not drawn) [E20C10A10],1.2E+ 04
16,CCCCCCCCCCC(COC(=O)C(CCCCCCC)CCCCCCCCC)OC(=O)C(C)CCN(C)C (stereo not drawn) [E7C79A10],3.6E+ 04
17,CCCCCCCCCCCC(COC(=O)C(CCCCCC)CCCCCCCC)OC(=O)CCCCN(C)C (stereo not drawn) [E8C71A11],5.4E+ 04
18,CCCCCCCCCCC(C)(C)C(=O)OCC(CCCCCC(CC)CC)OC(=O)CCCN(C)C (stereo not drawn) [E20C66A9],5.9E+ 04
19,CCCCCCCCCCCCCCCCCCC(=O)OCC(OC(=O)CCCN(C)C)C(CCCC)CCCCC (stereo not drawn) [E21C14A9],4.5E+ 04
20,"CCCCCCCCCCCCCCCC(=O)OCC(CCCCCC(CC)CC)OC(=O)CCCN(C)C (stereo not drawn) [E20C11A9, 2-((4-(Dimethylamino)Butyryl)Oxy)-8-Ethyldecyl Palmitate]",9.9E+ 04
21,CCCCCCCCCCCCCC(C)C(=O)OCC(CCCCCCCCCCC)OC(=O)CCCN(C)C (stereo not drawn) [E8C72A9],6.1E+ 04

row,SMILES,Luciferase luminescence intensity
1,CCCCCCCCCCCCCCC(C)C(=O)OCC(CCCCCCCC)OC(=O)CCCCN(C)C (stereo not drawn) [E5C74A11],7.7E+ 03
2,CCCCCCCCCCCCCCCCC(=O)OCC(OC(=O)CCCCN(C)C)C(CCCC)CCCCC (stereo not drawn) [E21C12A11],9.5E+ 04
3,CCCCCCCCCCCCCCC(=O)OCC(CCCCCC(CC)CC)OC(=O)CCCN(C)C (stereo not drawn) [E20C10A9],4.8E+ 04
4,CCCCCCCCCCC(COC(=O)C(CCCCCCC)CCCCCCCCC)OC(=O)CCCCN(C)C (stereo not drawn) [E7C79A11],4.2E+ 04
5,CCCCCCCCCCCCCC(C)C(=O)OCC(CCCCCC(CC)CC)OC(=O)CCCN(C)C (stereo not drawn) [E20C72A9],4.7E+ 03
6,CCCCCCCCCCCC(COC(=O)C(CCCCCC)CCCCCCCC)OC(=O)C1CCN(C)CC1 (stereo not drawn) [E8C71A23],1.5E+ 04
7,CCCCCCCCCCCCC(COC(=O)C(CCCCCC)CCCCCC)OC(=O)CCCN(C)C (stereo not drawn) [E9C64A9],8.9E+ 04
8,CCCCCCCCCC(CCCCCCC)C(=O)OCC(CCCCCCC)OC(=O)CCCN(C)C (stereo not drawn) [E4C79A9],2.2E+ 04
9,CCCCCCCCCCCCCCCCCC(=O)OCC(OC(=O)CCCN(C)C)C(CCCC)CCCCC (stereo not drawn) [E21C13A9],6.7E+ 04
10,CCCCCCCCCCCCCCCC(COC(=O)C(CCCCCC)CCCCCC)OC(=O)C1CCN(C)CC1 (stereo not drawn) [E12C64A23],1.8E+ 04
11,CCCCCCCCCCC(COC(=O)C(CCCCCC)CCCCCCCC)OC(=O)CCCCN(C)C (stereo not drawn) [E7C71A11],4.4E+ 04
12,CCCCCCCCCCCCCCCCC(=O)OCC(CCCCCC(CC)CC)OC(=O)C1CCN(C)CC1 (stereo not drawn) [E20C12A23],1.7E+ 04
13,CCCCCCCCCC(COC(=O)C(CCCCCCC)CCCCCCCCC)OC(=O)CCCCN(C)C (stereo not drawn) [E6C79A11],5.4E+ 04
14,CCCCCCCCCC(COC(=O)C(CCCCCC)CCCCCCCC)OC(=O)CCCCN(C)C (stereo not drawn) [E6C71A11],3.4E+ 04
15,CCCCCCCCCCCCCCCCC(=O)OCC(CCCCCC(CC)CC)OC(=O)CCCN(C)C (stereo not drawn) [E20C12A9],4.9E+ 04
16,CCCCCCCCCCCCCCC(C)C(=O)OCC(CCCCCCCCCC)OC(=O)CCCN(C)C (stereo not drawn) [E7C74A9],4.8E+ 04
17,CCCCCCCCCCCCCCC(C)C(=O)OCC(CCCCCCC)OC(=O)CCCN(C)C (stereo not drawn) [E4C74A9],6.9E+ 04
18,CCCCCCCCCCCCCCCC(=O)OCC(OC(=O)CCCCN(C)C)C(CCCC)CCCCC (stereo not drawn) [E21C11A11],4.7E+ 04
19,CCCCCCCCCCCC(COC(=O)C(CCCCCC)CCCCCCCC)OC(=O)CCCN(C)C (stereo not drawn) [E8C71A9],8.8E+ 04
20,CCCCCCCCCCCCCCC(C)C(=O)OCC(CCCCCCCCCCCCC)OC(=O)C1CCN(C)CC1 (stereo not drawn) [E10C74A23],1.0E+ 04
21,CCCCCCCCCCCCCC(=O)OCC(CCCCCC(CC)CC)OC(=O)CCCCN(C)C (stereo not drawn) [E20C9A11],4.0E+ 04

row,SMILES,Luciferase luminescence intensity
1,CCC(CC)CCCCCC(COC(=O)CCCCCCCCCCCC(C)C)OC(=O)CCCN(C)C (stereo not drawn) [E20C67A9],9.5E+ 03
2,"CCCCCCCC/C=C/CCCCCCCC(=O)OCC(CCCCCCCC)OC(=O)C1CCN(C)CC1 (stereo not drawn) [E5C82A23, 1-(Octadec-9-Enoyloxy) Decan-2-Yl 1-Methylpiperidine-4-Carboxylate]",1.4E+ 04
3,CCCCCCCCCCC(COC(=O)C(CCCCCCC)CCCCCCCCC)OC(=O)CCCN(C)C (stereo not drawn) [E7C79A9],5.6E+ 04
4,CCCCCCCCCCCCCCCC(=O)OCC(OC(=O)C(C)CCN(C)C)C(CCCC)CCCCC (stereo not drawn) [E21C11A10],1.7E+ 04
5,CCCCCCCCCCC(COC(=O)C(CCCCCC)CCCCCCCC)OC(=O)C(C)CCN(C)C (stereo not drawn) [E7C71A10],8.3E+ 04
6,CCCCCCCCCCCCCCC(COC(=O)C(CC)CCCCCCCCC)OC(=O)CCCCN(C)C (stereo not drawn) [E11C60A11],3.3E+ 04
7,CCCCCCCCCCCCCCCCCC(=O)OCC(OC(=O)CCCCN(C)C)C(CCCC)CCCCC (stereo not drawn) [E21C13A11],6.4E+ 04
8,CCCCCCCCCCCCCCC(C)C(=O)OCC(CCCCCCCCCCC)OC(=O)C1CCN(C)CC1 (stereo not drawn) [E8C74A23],1.3E+ 04
9,CCCCCCCCCC(CCCCCCC)C(=O)OCC(CCCCCC)OC(=O)CCCCN(C)C (stereo not drawn) [E3C79A11],9.0E+ 04
10,CCCCCCCCCCCCCC(C)C(=O)OCC(CCCCCCCCCCC)OC(=O)CCCCN(C)C (stereo not drawn) [E8C72A11],7.3E+ 04
11,CCCCCCCCCC(CCCCCCC)C(=O)OCC(CCCCCCC)OC(=O)CCCCN(C)C (stereo not drawn) [E4C79A11],3.4E+ 04
12,CCCCCCCCCCCCCCCCC(=O)OCC(CCCCCC(CC)CC)OC(=O)C(C)CCN(C)C (stereo not drawn) [E20C12A10],9.6E+ 04
13,CCCCCCCCCCCCC(COC(=O)CCCCCCCCCC(C)CC)OC(=O)C(C)CCN(C)C (stereo not drawn) [E9C63A10],5.6E+ 04
14,C=CCCCCC(COC(=O)C(CCCCCCC)CCCCCCCCC)OC(=O)CCCCN(C)C (stereo not drawn) [E15C79A11],3.0E+ 04
15,CCCCCCCCCCCCCCC(=O)OCC(CCCCCC(CC)CC)OC(=O)CCCCN(C)C (stereo not drawn) [E20C10A11],1.9E+ 04
16,CCCCCCC(CCCCCC)C(=O)OCC(CCCCCC(CC)CC)OC(=O)CCCN(C)C (stereo not drawn) [E20C64A9],3.0E+ 04
17,CCCCCCCCCCCCCCC(C)C(=O)OCC(CCCCCCCCC)OC(=O)C(C)CCN(C)C (stereo not drawn) [E6C74A10],1.1E+ 04
18,CCCCCCCCCCCCCC(=O)OCC(CCCCCC(CC)CC)OC(=O)C(C)CCN(C)C (stereo not drawn) [E20C9A10],2.7E+ 04
19,CCCCCCCCCC(CCCCCCC)C(=O)OCC(CCCCCCCC)OC(=O)CCCCN(C)C (stereo not drawn) [E5C79A11],3.6E+ 04
20,CCCCCCCCCCCCCCCC(=O)OCC(OC(=O)CCCN(C)C)C(CCCC)CCCCC (stereo not drawn) [E21C11A9],8.7E+ 03
21,CCCCCCCCCCCCCCCC(COC(=O)C(C)CCCCCCCCCCCCCC)OC(=O)CCCCN(C)C (stereo not drawn) [E12C74A11],1.1E+ 04
